Laboratory results taken from patent publication US8404225B2, “Contact sex pheromone component of the Emerald Ash Borer Agrilus planipennis Fairmaire (Coleoptera: Buprestidae)” (National Research Council of Canada, priority 2008, dated 2013).

Assays:
[1] = test system: brown Spruce Longhorn Beetle (BSLB); details: inventors' soon to be published research; cited from earlier work
[2] = test system: feral EAB males (Agrilus planipennis); test: Behavioral field bioassay with dummy females (feral male contact and mating behaviour); type: in vivo
Procedure: Preparation of dummy females. A total of 78 EAB females that emerged from 10-15 Jul. 2008 were reared for the field bioassay. Female EAB were reared in the quarantine facilities, as described above, until the age of 14 days, when they were frozen. Prior to the field bioassay, females were removed from the freezer and thawed for 2-3 h. For 52 of the females, each female was individually rinsed in 1 ml of hexane for about 2 min. Females were then allowed to dry for a minimum of 30 min before being rinsed again. Females were rinsed a total of three times for 2 min each time and left to dry overnight after the final rinsing. All 78 females were then individually pinned through the right elytra at its base; the heads of the pins were then snipped off such that the end of the pin was only about 1 mm above the surface of the female's body and thus would not interfere with approaches by feral male EAB. Twenty-six of the rinsed females were then treated with 1 μl of racemic 9-methyl pentacosane (ca. 5 mg/ml; one female equivalent), in solution with hexane, and allowed to dry. This divided the 78 females into three treatment groups (unwashed, washed, and washed then treated). The treatment groups were indicated by pinning a small paper insect ‘point’ underneath the female that was not visible from above. The points were colored white (unwashed), yellow (washed) or blue (washed then treated). […] Females were kept at 3-4° C. in a fridge for 2 days until used in the bioassay and were transported to the field in a cooler.
Behavioral field bioassay. The field bioassay was conducted from 7-11 Jul. 2008 at a site about 1.8 km northeast of Port Lambton, ON (42° 40.16′ N, 82° 29.56′ W). […] Dummy females were pinned to foliage on epicormic shoots of infested ash trees, growing from the base of the tree up to about 1.5 m above the ground. Females were placed and removed from foliage by grasping the pin underneath the female with tweezers and were never touched directly to avoid cross-contamination. Trees were chosen based on the presence of both epicormic shoots and feral EAB males on the foliage. Dummy females were placed in a triangle shape in groups of three (one of each treatment) about 20-30 cm apart. All females were pinned on south-facing foliage so that they would be in direct sunlight. From nine to 21 females were set up at different times on different trees, based on the amount of foliage available.
Observations of dummy females began once all females were established on the foliage, and lasted for about 1 h per observation session with breaks of 5-10 min in between observation sessions. We recorded the time of arrival of each male observed to land on a female and then the time of departure for that same male to obtain its total time spent in contact with a given female. The locations of the various treatments were not recorded, so the observations on time spent in contact by males was collected by observers who were unaware of the treatment. The treatment group (unwashed, treated, washed) was then recorded by checking for the presence of the colored insect point under the female's abdomen after the male had flown away. […]
The amount of time individual males spent in contact, and the percentage of that time spent attempting to mate, with females of the three different treatments were analyzed by one-way ANOVA after logarithmic transformation of data to meet the assumptions of normality of data and equality of variance; means were compared using the Holm-Sidak test. […]

SMILES | activity as a contact sex pheromone [1] | number of wild males landing on females ([2]; hexane-washed freeze-killed females treated with 1 μl racemic 9-methyl pentacosane (ca. 5 mg/ml; one female equivalent), field, about 40 h of observation) | percentage of contact time spent attempting to mate ([2]; subset of feral males (n=7 observations), one figure printed for unwashed and 9-Me-C25-treated females together, washed females about 20%) | contact and copulatory activity after reapplication to hexane-rinsed females ([2]; synthetic 9-Me-C25 reapplied, field bioassays) | time males spent on treated females compared with washed females ([2]; treated (n=27 observations) vs hexane-washed females (n=43), t=3.817, P=0.00004) | time males spent on treated females compared with unwashed females ([2]; treated (n=27 observations) vs unwashed females (n=36), t=0.138, P=0.89)
CCCCCCCCCCCCCC[C@@H](C)CCCCCCCCCC (single isomer, unassigned) [11S-enantiomer] | demonstrated activity |  |  |  |  | 
CCCCCCCCCCCCCCCCC(C)CCCCCCCC (racemic) [9-Me-C25, 9-methyl pentacosane] |  | 27 | 60%-70% | restored almost all contact and copulatory activity | significantly longer | slightly, but not significantly, less
